Read-outs that look alike come from different tables or passages of the source.
Assays:
4T1 TNBC = 4T1 TNBC orthotopic tumor model (tumor volume, survival); assay type: in vivo, mice (BALB/c)
Experimental: Tumor Model. Animal protocols were approved by the University of Colorado Health Sciences Center Animal Care and Use Committee. Female BALB/c mice, 6-8 weeks old (The Jackson Laboratory), were fed standard or dapansutrile (OLT1177®) diet (4), which was started on the day of 4T1 injection. 4T1 cells (2×10^5) were injected orthotopically into the mammary fat pad. Mice treated with dapansutrile were fed ad libidum with food pellets containing 7.5 g/kg dapansutrile, which started on the day of the 4T1 injection and continued for 15 days. Mice typically consume about 4 g of food per day, resulting in an approximate daily dose of 0 mg/kg/day for control groups and 1,000 mg/kg/day for the treatment groups. […] Control (“vehicle”) mice were fed with control food pellets without dapansutrile. Mice were sacrificed following 15 days after 4T1 injection.
(§1) Anti-PD-1 Combination Therapy. 4T1 cells were injected as described. After instillation of 4T1 cells, mice were started on dapansutrile (OLT1177®) diet or continued on standard diet as described and at day seven a neutralizing antibody against PD-1 (200 μg/mouse; BioXCell, West Lebanon, NH) was injected peritoneally. Mice were sacrificed following 15 days from the […] instillation.
as §1, with “Anti-IL-1α” for “Anti-PD-1”, “every three days” for “at day seven”, “anti-IL-1α” for “PD-1”, “XBioTech, Austin, TX)” for “BioXCell, West Lebanon, NH)”
4T1 TNBC mice were generated and fed a standard diet or a dapansutrile diet for 15 days. Tumors were measured on indicated days to generate a growth curve (FIG. 1C). Final tumor volume was taken following resection of the tumors (FIG. 1B).
To further assess the roles of IL-1α and IL-1β in driving 4T1 tumor progression, inventors treated mice with anti-IL-1α (200 μg/mouse), dapansutrile diet, and a combination of both. 4T1 TNBC mice were generated and fed a standard diet or a dapansutrile diet for 15 days. Mice were injected with anti-IL1α every 3 days as indicated. Subsequently, tumor volume was analyzed.
4T1 TNBC mice were generated and fed a standard diet or a dapansutrile diet for 15 days. Mice receiving a combination therapy were injected with anti-PD-1 on day 7 as indicated (FIG. 3A).

TSLP [1] = assay: Gene expression (qPCR) in primary 4T1 tumors: TSLP; assay type: in vivo, mice; details: dapansutrile diet vs vehicle (FIG. 2D)
Experimental: (§2) Gene Expression. RNA was then isolated using Trizol (Thermo Fisher Scientific) and synthesized in cDNA using SuperScript III First-Strand (Thermo Fisher Scientific). Quantitative PCR (qPCR) was performed on cDNA using Power SYBR Green PCR master mix (Thermo Fisher Scientific) on Biorad CFX96 Real time system. Gene expression was assessed for Tslp, Tslpr, and Pdcd-11L1 mRNAs as indicated using the following primers: […]
(§3) Tumor Model. Animal protocols were approved by the University of Colorado Health Sciences Center Animal Care and Use Committee. Female BALB/c mice, 6-8 weeks old (The Jackson Laboratory), were fed standard or dapansutrile (OLT1177®) diet (4), which was started on the day of 4T1 injection. 4T1 cells (2×10^5) were injected orthotopically into the mammary fat pad. […]
(§4) Previous studies on the tumor-myeloid cell interactions in triple-negative breast cancer indicate that tumor-derived IL-1α promotes infiltrating myeloid cells to secrete TSLP (thymic stromal lymphopoietin), which in turn is critical for tumor progression at both primary and distant metastatic sites (15). To further evaluate the effects of blocking NLRP3 in 4T1 tumor progression, inventors quantified gene expression of TSLP and its associated receptor TSLPR in primary 4T1 tumors as measured by relative mRNA expression. […]

TSLPR [2] = assay: Gene expression (qPCR) in primary 4T1 tumors: TSLPR; assay type: in vivo, mice; details: dapansutrile diet vs vehicle (FIG. 2E)
Experimental: as §2, §3, §4

TSLP [3] = assay: TSLP mRNA expression in IL-1α-stimulated MDA-468 cells; assay type: cell-based, human; details: IL-1α 20 ng/mL, dapansutrile 10 μM, 24 hours, vs control (FIG. 2F)
Experimental: (§5) Cell Lines. The mammary carcinoma cell lines 4T1, E0771, and MDA-468 were obtained from ATCC (Manassas, VA). Cells were cultured in DMEM supplemented with 10% FBS, 100 units/mL penicillin, 0.1 mg/ml streptomycin. Cells were maintained in a humidified 5% CO2 atmosphere at 37° C.
(§6) In vitro. Tumor cell lines were adhered overnight at a concentration of 200,000 per well. The following day human recombinant IL-1α or IL-1β (R&D Systems, Minneapolis, MN) were added with or without dapansutrile (OLT1177®) and incubated for 24 hours. Cells were then lysed using TRIzol reagent (Thermo Fisher Scientific, Waltham, MA).
(§7) Gene Expression. […] Quantitative PCR (qPCR) was performed on cDNA using Power SYBR Green PCR master mix (Thermo Fisher Scientific) on Biorad CFX96 Real time system. Gene expression was assessed for Tslp, Tslpr, and Pdcd-11L1 mRNAs as indicated using the following primers: […]
as §4

TSLPR [4] = assay: TSLPR mRNA expression in IL-1α-stimulated MDA-468 cells; assay type: cell-based, human; details: IL-1α 20 ng/mL, dapansutrile 10 μM, 24 hours, vs control (FIG. 2G)
Experimental: as §5, §6, §7, §4

PD-L1 [5] = assay: Gene expression (qPCR) in 4T1 tumors: PD-L1; assay type: in vivo, mice; details: dapansutrile diet vs standard diet (FIG. 3D)
Experimental: as §2
Tumor Model. Animal protocols were approved by the University of Colorado Health Sciences Center Animal Care and Use Committee. Female BALB/c mice, 6-8 weeks old (The Jackson Laboratory), were fed standard or dapansutrile (OLT1177®) diet (4), which was started on the day of 4T1 injection. 4T1 cells (2×10^5) were injected orthotopically into the mammary fat pad. Mice treated with dapansutrile were fed ad libidum with food pellets containing 7.5 g/kg dapansutrile, which started on the day of the 4T1 injection and continued for 15 days. Mice typically consume about 4 g of food per day, resulting in an approximate daily dose of 0 mg/kg/day for control groups and 1,000 mg/kg/day for the treatment groups. […] Control (“vehicle”) mice were fed with control food pellets without dapansutrile. Mice were sacrificed following 15 days after 4T1 injection. […]

PD-L1 [6] = assay: PD-L1 mRNA expression in IL-1α-stimulated E0771 cells; assay type: cell-based, murine; details: IL-1α 10 ng/mL, dapansutrile vs vehicle (FIG. 3E)
Experimental: as §5, §6, §2
In vitro analysis of the murine triple-negative breast cancer cell line E0771 was conducted to examine the effects of dapansutrile on PD-L1 expression levels following cell death signaling. IL-1α stimulation was used to simulate cell death signaling in the tumor-microenvironment. […]

IL-22 = assay: Splenocyte cytokine secretion (ELISA): IL-22; assay type: in vivo; details: splenocytes of 4T1 tumor-bearing mice, LPS 10 μg/mL, 72 hours, vs vehicle (FIG. 4B)
Experimental: (§8) Splenocyte Cytokine Secretion. 4T1 cells were injected as described. Spleens from tumor-bearing mice were processed for cell culture through mechanical dissociation. Cells suspended in RPMI supplemented with 10% FBS, 100 units/mL penicillin, 0.1 mg/ml streptomycin and were plated at 5.0e^5 and stimulated with 10 μg/mL LPS. After 72 hours, supernatants were removed and cytokines were measured via ELISA (R&D Systems, Minneapolis, MN).
(§9) In this Example, 4T1 TNBC mice were generated and fed a standard diet or a dapansutrile diet for 15 days.

IFNγ = assay: Splenocyte cytokine secretion (ELISA): IFNγ; assay type: in vivo; details: splenocytes of 4T1 tumor-bearing mice, LPS 10 μg/mL, 72 hours, vs vehicle (FIG. 4C)
Experimental: as §8, §9

[7] = humans treated orally at 1000 mg/day; cited from earlier work
[8] = mice, 7.5 g/kg dapansutrile in food (about 1,000 mg/kg/day); nearly the same as human level; cited from earlier work
[9] = orally administered to healthy subjects; cited from earlier work
NLRP3 inflammasome = NLRP3 inflammasome (Homo sapiens, UniProt Q96P20); details: cited from earlier work
NLRP3 inflammasome, sequence (Q96P20 whole entry): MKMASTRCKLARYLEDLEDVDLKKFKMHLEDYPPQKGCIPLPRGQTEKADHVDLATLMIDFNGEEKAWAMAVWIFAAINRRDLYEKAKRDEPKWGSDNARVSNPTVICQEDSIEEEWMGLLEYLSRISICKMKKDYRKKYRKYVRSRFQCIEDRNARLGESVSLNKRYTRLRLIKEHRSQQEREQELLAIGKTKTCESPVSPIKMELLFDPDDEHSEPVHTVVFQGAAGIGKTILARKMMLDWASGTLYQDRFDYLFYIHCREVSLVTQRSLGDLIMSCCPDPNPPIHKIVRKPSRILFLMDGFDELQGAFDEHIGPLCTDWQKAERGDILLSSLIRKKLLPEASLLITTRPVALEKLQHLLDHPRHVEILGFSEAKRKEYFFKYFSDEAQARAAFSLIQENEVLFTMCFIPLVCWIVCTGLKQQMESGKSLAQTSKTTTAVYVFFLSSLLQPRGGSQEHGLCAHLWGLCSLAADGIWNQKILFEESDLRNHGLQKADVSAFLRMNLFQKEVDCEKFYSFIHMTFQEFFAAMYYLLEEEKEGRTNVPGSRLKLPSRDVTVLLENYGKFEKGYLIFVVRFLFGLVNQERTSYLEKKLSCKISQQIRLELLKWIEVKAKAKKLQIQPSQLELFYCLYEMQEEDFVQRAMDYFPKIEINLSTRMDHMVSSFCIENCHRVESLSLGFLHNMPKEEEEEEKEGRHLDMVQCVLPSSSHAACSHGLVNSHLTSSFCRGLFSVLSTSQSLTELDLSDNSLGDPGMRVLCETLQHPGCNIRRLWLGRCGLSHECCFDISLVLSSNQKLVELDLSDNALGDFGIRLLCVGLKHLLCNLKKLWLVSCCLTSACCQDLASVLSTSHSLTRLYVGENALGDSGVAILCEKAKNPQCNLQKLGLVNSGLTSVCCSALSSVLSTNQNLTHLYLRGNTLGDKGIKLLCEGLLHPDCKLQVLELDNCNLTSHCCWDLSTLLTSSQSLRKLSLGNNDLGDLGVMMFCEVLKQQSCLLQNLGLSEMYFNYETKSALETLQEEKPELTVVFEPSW

With CS(=O)(=O)CCC#N [dapansutrile, 3-methanesulfonyl-propionitrile] as the compound, how does the “mice surviving beyond 30 days” value (4T1 TNBC; Example 1, 4T1 TNBC mice on dapansutrile diet) read?
The value was “half”.

What about the tumor volume (4T1 TNBC; Example 1, 4T1 TNBC mice, dapansutrile diet 15 days vs standard diet, after resection (FIG. 1B)) of the same compound?
The tumor volume was “significantly decreased tumor volume”.

What about the survival rates (4T1 TNBC; Example 1, 4T1 TNBC mice, dapansutrile diet vs standard diet (FIG. 1D, n=10)) of the same compound?
The survival rates was “significantly higher survival rates”.

What about the tumor volumes (4T1 TNBC; Example 2, 4T1 TNBC mice, 15 days, dapansutrile diet and/or anti-IL-1α 200 μg/mouse every 3 days, vs vehicle (FIGS. 2B, 2C)) of the same compound?
Its tumor volumes is “significantly reduced tumor volumes”.

What about the tumor volume (4T1 TNBC; Example 3, 4T1 TNBC mice, day 15 after resection, dapansutrile diet and/or anti-PD-1 200 μg/mouse on day 7, vs vehicle (FIG. 3B)) of the same compound?
Its tumor volume is “significant tumor reduction”.

And the “TSLP expression (relative mRNA)” value (TSLP [1])?
Its value is “significantly lower”.

What about the “TSLPR expression (relative mRNA)” value (TSLPR [2]) of the same compound?
Its value is “significantly lower”.

And the “TSLP expression (relative mRNA)” value (TSLP [3])?
The value was “significantly lower”.

What about the “TSLPR expression (relative mRNA)” value (TSLPR [4]) of the same compound?
The value was “significantly lower”.

What about the “PD-L1 gene expression (relative mRNA)” value (PD-L1 [5]) of the same compound?
The value was “significantly less”.

What about the “PD-L1 expression (relative mRNA)” value (PD-L1 [6]) of the same compound?
The value was “markedly lower”.

What about the IL-22 levels (IL-22) of the same compound?
Its IL-22 levels is “significantly reduced IL-22 levels”.

And the IFNγ levels (IFNγ)?
Its IFNγ levels is “increased”.

What about the blood level [7] of the same compound?
Its blood level is 40000 ng/mL.

What about the blood level [8] of the same compound?
Its blood level is about 40000 ng/mL.

What about the safety [9] of the same compound?
Its safety is “safe”.

What about the NLRP3 inflammasome inhibition (NLRP3 inflammasome) of the same compound?
The NLRP3 inflammasome inhibition was “selectively inhibit”.
